Measurements from patent US11407715B2, “Substituted indoline derivatives as dengue viral replication inhibitors” (JANSSEN PHARMACEUTICALS, INC., priority 2017, dated 2022).

Tests used:
[1] = tested on: DENV-2 16681 strain; assay: microbe, parasite or virus in culture; format: cell-based, Dengue virus; settings: for EC50: DENV-2 16681 eGFP, Vero cells, MOI 0.5, 3 days; for SI: SI=CC50/EC50, DENV-2 antiviral assay
[2] = tested on: DENV-1 strain TC974#666; assay: Tetravalent RT-qPCR assay, serotype 1; format: cell-based, Dengue virus; settings: RT-qPCR serotype 1 TC974#666, Vero cells
Description: (§1) The antiviral activity of the compounds of the invention was tested against DENV-1 strain TC974#666 (NCPV), DENV-2 strain 16681, DENV-3 strain H87 (NCPV) and DENV-4 strain H241 (NCPV) in a RT-qPCR assay. Therefore, Vero cells were infected with either DENV-1, or -2, or -3, or -4 in the presence or absence of test compounds. At day 3 post-infection, the cells were lysed and cell lysates were used to prepare cDNA of both a viral target (the 3′UTR of DENV; Table 2) and a cellular reference gene (β-actin, Table 2). Subsequently, a duplex real time PCR was performed on a Lightcycler480 instrument. The generated Cp value is inversely proportional to the amount of RNA expression of these targets. Inhibition of DENV replication by a test compound results in a shift of Cp's for the 3′UTR gene. On the other hand, if a test compound is toxic to the cells, a similar effect on β-actin expression will be observed. The comparative ΔΔCp method is used to calculate ECs50, which is based on the relative gene expression of the target gene (3′UTR) normalized with the cellular housekeeping gene (β-actin). In addition, CC50 values are determined based on the Cp values acquired for the housekeeping gene β-actin.
(§2) The culture medium consisted of minimal essential medium supplemented with 2% of heat-inactivated fetal calf serum, 0.04% gentamycin (50 mg/mL) and 2 mM of L-glutamine. Vero cells, obtained from ECACC, were suspended in culture medium and 75 μL/well was added in 96-well plates (10000 cells/well), which already contain the antiviral compounds. […] In addition, each plate contains wells which are assigned as virus controls (containing cells and virus in the absence of compound) and cell controls (containing cells in the absence of virus and compound). Once the cells were added in the plates, the plates were incubated in a fully humidified incubator (37° C., 5% CO2) until the next day. Dengue viruses serotype-1, 2, 3 and 4 were diluted in order to obtain a Cp of ˜22-24 in the assay. Therefore, 25 μL of virus suspension was added to all the wells containing test compound and to the wells assigned as virus control. In parallel, 25 μL of culture medium was added to the cell controls. Next, the plates were incubated for 3 days in a fully humidified incubator (37° C., 5% CO2). After 3 days, the supernatant was removed from the wells and the cells were washed twice with ice-cold PBS (˜100 μL). The cell pellets within the 96-well plates were stored at −80° C. for at least 1 day. Next, RNA was extracted using the Cells-to-CT™ lysis kit, according to the manufacturer's guideline (Life Technologies). The cell lysates can be stored at −80C or immediately used in the reverse transcription step.
(§3) In preparation of the reverse transcription step, mix A (table 3A) was prepared and 7.57 μL/well was dispensed in a 96-well plate. After addition of 5 μL of the cell lysates, a five minute denaturation step at 75° C. was performed (table 3B). Afterwards, 7.43 μL of mix B was added (table 3C) and the reverse transcription step was initiated (table 3D) to generate cDNA.
(§4) Finally, a RT-qPCR mix was prepared, mix C (table 4A), and 22.02 μL/well was dispensed in 96-well LightCycler qPCR plates to which 3 μL of cDNA was added and the qPCR was performed according to the conditions in table 4B on a LightCycler 480.
(§5) Using the LightCycler software and an in-house LIMS system, dose response curves for each compound were calculated and the half maximal effective concentration (EC50) and the half maximal cytotoxic concentration (CC50) were determined (Tables 5-8).

[3] = tested on: DENV-2 strain 16681; assay: Tetravalent RT-qPCR assay, serotype 2; format: cell-based, Dengue virus; settings: RT-qPCR serotype 2 16681, Vero cells
Description: as §1, §2, §3, §4, §5

[4] = tested on: DENV-3 strain H87; assay: Tetravalent RT-qPCR assay, serotype 3; format: cell-based, Dengue virus; settings: RT-qPCR serotype 3 H87, Vero cells
Description: as §1, §2, §3, §4, §5

[5] = tested on: DENV-4 strain H241; assay: Tetravalent RT-qPCR assay, serotype 4; format: cell-based, Dengue virus; settings: RT-qPCR serotype 4 H241, Vero cells
Description: as §1, §2, §3, §4, §5

[6] = in vitro; settings: African green monkey
[7] = tested on: Vero cells; settings: African green monkey

Structure (SMILES)	EC50 [1]	SI [1]	EC50 ([2]; Dengue virus, DENV1, Vero)	EC50 ([3]; Dengue virus, DENV2, Vero)	EC50 ([4]; Dengue virus, DENV3, Vero)	EC50 ([5]; Dengue virus, DENV4, Vero)	CC50 [6]	EC50 [2]	EC50 [4]	EC50 [5]	CC50 [7]	EC50 [3]
COc1cc(NC(C(=O)N2CCc3ccc(OC(F)(F)F)cc32)c2ccc(Cl)cc2)cc(OCCC(C)C(=O)O)c1 (single isomer, unassigned) [Compound 1C]	0.094 nM	131193	0.23 nM	0.18 nM	2.4 nM	16 nM	12000 nM					
COc1cc(NC(C(=O)N2CCc3ccc(OC(F)(F)F)cc32)c2ccc(Cl)cc2)cc(OCC2(CC(=O)O)CC2)c1 (single isomer, unassigned) [Compound 5A]	0.51 nM	26300	0.58 nM	0.42 nM	8.1 nM	58 nM	12000 nM					
COc1cc(CCCCC(=O)O)cc(NC(C(=O)N2CCc3ccc(OC(F)(F)F)cc32)c2ccc(Cl)cc2)c1 (single isomer, unassigned) [Compound 14A]	0.11 nM	151558	0.26 nM	0.2 nM	2.8 nM	15 nM	16000 nM					
COc1cc(NC2CC(C(=O)O)C2)cc(NC(C(=O)N2CCc3ccc(OC(F)(F)F)cc32)c2ccc(Cl)cc2)c1 (single isomer, unassigned) [Compound 33C]	3.2 nM	5930		1 nM				0.97 nM	11 nM	340 nM	19000 nM	
COc1cc(NC2CC(C(=O)O)C2)cc(NC(C(=O)N2CCc3ccc(OC(F)(F)F)cc32)c2ccc(Cl)cc2)c1 (single isomer, unassigned) [Compound 33D]	0.52 nM	39000						0.48 nM	2.3 nM	22 nM	18000 nM	0.66 nM
COc1cc(NC(C(=O)N2CCc3ccc(OC(F)(F)F)cc32)c2ccc(Cl)cc2)cc(OCC2CC2C(=O)O)c1 (stereo not drawn) [Compound 6AB]	0.016 nM	>199223						0.022 nM	0.13 nM	2.9 nM	12000 nM	0.017 nM
COc1cc(NC(C(=O)N2CCc3ccc(OC(F)(F)F)cc32)c2ccc(Cl)cc2)cc(OCC2CC2C(=O)O)c1 (stereo not drawn) [Compound 6BB]	0.18 nM	83800						0.13 nM	1.6 nM	20 nM	12000 nM	0.12 nM
COc1cc(NC(C(=O)N2CCc3ccc(OC(F)(F)F)cc32)c2ccc(Cl)cc2)cc(OC2CC(C(=O)O)C2)c1 (stereo not drawn) [Compound 7B]	0.12 nM	121027						0.15 nM	1.8 nM	13 nM	13000 nM	0.12 nM
COc1cc(NC(C(=O)N2CCc3ccc(OC(F)(F)F)cc32)c2ccc(Cl)cc2)cc(OC2CC(C(=O)O)C2)c1 (stereo not drawn) [Compound 8B]	0.023 nM	>102836						0.032 nM	0.16 nM	1.3 nM	14000 nM	0.025 nM
COc1cc(NC(C(=O)N2CCc3ccc(OC(F)(F)F)cc32)c2ccc(Cl)cc2)cc(OCC2CC(C(=O)O)C2)c1 (stereo not drawn) [Compound 10B]	0.11 nM	109987	0.27 nM	0.11 nM	2.9 nM	22 nM					11000 nM	
COc1cc(NC(C(=O)N2CCc3ccc(OC(F)(F)F)cc32)c2ccc(Cl)cc2)cc(OCC2CC(C(=O)O)C2)c1 (stereo not drawn) [Compound 11B]	0.11 nM	118692						0.2 nM	1.8 nM	17 nM	11000 nM	0.1 nM
COc1cc(NC(C(=O)N2CCc3ccc(OC(F)(F)F)cc32)c2ccc(Cl)cc2OC)cc(OCC2CC2C(=O)O)c1 (stereo not drawn) [Compound 19AB]	0.012 nM	>390600						0.021 nM	0.14 nM	0.69 nM	12000 nM	0.014 nM
COc1cc(NC(C(=O)N2CCc3ccc(OC(F)(F)F)cc32)c2ccc(Cl)cc2OC)cc(OCC2CC2C(=O)O)c1 (stereo not drawn) [Compound 19BB]	0.038 nM	>148612						0.091 nM	0.85 nM	6.8 nM	8800 nM	0.078 nM
COc1cc(NC(C(=O)N2CCc3cc(OC)c(C(F)(F)F)cc32)c2ccc(Cl)cc2)cc(OCC2CC2C(=O)O)c1 (stereo not drawn) [Compound 22AB]	0.034 nM	>196427						0.091 nM	0.49 nM	3.3 nM	12000 nM	0.029 nM
COc1cc(NC(C(=O)N2CCc3cc(OC)c(C(F)(F)F)cc32)c2ccc(Cl)cc2)cc(OCC2CC2C(=O)O)c1 (stereo not drawn) [Compound 22BB]	0.46 nM	27600						1.5 nM	9 nM	71 nM	14000 nM	0.33 nM
COc1cc(NC(C(=O)N2CCc3cc(OC)c(C(F)(F)F)cc32)c2ccc(Cl)cc2)cc(OC2CC(C(=O)O)C2)c1 (stereo not drawn) [Compound 23B]	0.062 nM	>88755	0.092 nM	0.034 nM	0.33 nM	2.7 nM					12000 nM	
COc1cc(NC(C(=O)N2CCc3cc(OC)c(C(F)(F)F)cc32)c2ccc(Cl)cc2)cc(OCC2CC(C(=O)O)C2)c1 (stereo not drawn) [Compound 24B]	0.34 nM	43100	2.2 nM	0.26 nM		66 nM			14 nM		12000 nM	
COc1cc(NC(C(=O)N2CCc3cc(OC)c(C(F)(F)F)cc32)c2ccc(Cl)cc2)cc(OCC2CC(C(=O)O)C2)c1 (stereo not drawn) [Compound 25B]	0.28 nM	52900						1.3 nM	6.3 nM	55 nM	13000 nM	0.27 nM
COc1cc(NC(C(=O)N2CCc3ccc(OC(F)(F)F)cc32)c2ccc(Cl)cc2)cc(OCC2(F)CC2C(=O)O)c1 (stereo not drawn) [Compound 28AB]	0.68 nM	19000						0.41 nM	5.3 nM	69 nM	13000 nM	0.31 nM
COc1cc(NC(C(=O)N2CCc3ccc(OC(F)(F)F)cc32)c2ccc(Cl)cc2)cc(OCC2(F)CC2C(=O)O)c1 (stereo not drawn) [Compound 29AB]	0.53 nM	22300						0.23 nM	4.6 nM	35 nM	12000 nM	0.25 nM
COc1cc(NC(C(=O)N2CCc3cc(F)c(OC(F)(F)F)cc32)c2ccc(Cl)cc2)cc(OCC2CC(C(=O)O)C2)c1 (stereo not drawn) [Compound 31A]	0.2 nM	70300						0.19 nM	1.5 nM	17 nM	12000 nM	0.11 nM
